Patent US20040219202A1, “Pharmaceutical composition comprising lipids comprising a polar and a nonpolar moiety” (priority 2001, published 2004)
“Also recorded” adds a separate entry of the source.

Columns and labels:
[1] = literature statement; cited from earlier work
[2] = test system: Panc-1 cells; test: Transfection of Panc-1 cells with LMDs (liposome:mu:DNA), β-galactosidase reporter assay; type: cell-based
Experimental: (§1) Purity of the lipids was checked by TLC or HPLC. All lipids were stored as stock solutions in anhydrous CH2Cl2, at concentrations of either 5 mg/ml or 10 mg/ml, at −80° C., under Ar. In order to prepare cationic liposomes, lipids were added to a round-bottomed flask, via syringe, under Ar, and further freshly distilled CH2Cl2 was added, if necessary, to give a concentration of around 2.5 mg/ml. Then, 4 mM HEPES pH 7.0 (1 ml) was added, and the biphasic system was swirled to mix. A liposomal suspension was created by removing the organic solvent under reduced pressure at 25° C., followed by sonication for 2-5 min. in a water bath sonicator. Doubly-distilled water was added, if necessary, to return the total volume to 1 ml. All liposomal solutions were prepared at a final concentration of 5 mg/ml. The pH of the liposomal suspension was checked by pH Boy (Camlab Ltd., Over, Cambridgeshire, UK) and adjusted to pH 7.0±0.1 with concentrated aqueous solutions of HCl and NaOH.
(§2) Liposomes were extruded (Extruder, Northern Upids, Inc., Vancouver, BC, Canada) by passing through two 100 nm polycarbonate filters (Isopore™ Membrane Filters, Millipore (UK) Ltd., Watford, Hertfordshire, UK) ten times. For each preparation, the size distribution of liposomes was measured by photon correlation spectroscopy (PCS) (Coulter® N4 Plus Submicron Particle Sizer, Beckman Coulter, High Wycombe, Buckinghamshire, UK). For phospholipid-containing liposomes, phospholipid concentrations were checked by the Stewart assay.^23 In each case, a final lipid concentration of 4.7±0.1 mg/ml was observed. For non-phospholipid containing liposomes, lipid loss was also inevitable on extrusion. For all fast-extruding liposomal suspensions, total lipid concentration was assumed to be 4.7 mg/ml. For slower extrusions, total lipid concentrations were assumed to be 4.3 mg/ml. Very slowly extruding liposomes were extruded three times only and assumed to be 4.7 mg/ml.
(§3) Plasmid DNA containing the β-galactosidase gene (pNGVL1-nt-beta-gal; 7.53 kbp) was stored as frozen aliquots at −80° C., at a concentration of 1.2 mg/ml; μ (mu) peptide (adenoviral core peptide [H2N-Met-Arg-Arg-Ala-His-His-Arg-Arg-Arg-Arg-Ala-Ser-His-Arg-Arg-Met-Arg-Gly-Gly-CO2H]) was synthesised as described previously,^7 and maintained at 4° C. in aliquots of 1 mg/ml. Mu-DNA complexes were made by adding plasmid DNA to mu in 4 mM HEPES at a ratio of 1:0.6 (w/w) with fast vortexing. LMDs were prepared by complexing mu-DNA particles with cationic liposomes (as prepared above) in a ratio of 1:12 (w/w), such that all LMDs for all formulations were substantially cationic. For each preparation, the size distribution of LMDs was measured by PCS.
Panc-1 cells were maintained in RPMI/10% FCS/1% penicillin-streptomycin (Gibco™, Invitrogen Corporation, Paisley, Scotland, UK) at 37° C./5% CO2 in a humidified atmosphere. Twenty-four hours prior to transfection, 30 000 cells per well were seeded in 48 well microtitre plates (Corning Costar, Merck Ltd., Lutterworth, Leicestershire, UK) in 500 μl medium. As a control, plasmid DNA (0.5 μg in 200 μl medium) was added to a well. As a positive control, 1.5 μl Transfast™ (Promega Corporation, Madison, Wis., USA; prepared according to the supplier's protocol) in 200 μl medium was complexed with plasmid DNA (0.5 μg) and added to a well. 5 μl (0.5 μg DNA) of LMD formulation was added to each well. All experiments were performed in quadruplicate. The plate was swirled for 30 s, and incubated for 1 h at 37° C. Medium was then removed, and 500 μl of fresh medium was added. The cells were incubated at 37° C. for a further 24 h.
Medium was aspirated from the wells and the cell layer was washed with phosphate buffered saline (PBS) (Gibco™). The cells of each well were lysed in 150 μl lysis reagent (prepared according to the supplier's protocol; β-Gal Reporter Gene Assay, Roche Diagnostics GmbH, D-68305 Mannheim, Germany) at room temperature for 30 min. […]

[3] = test system: COS-7 cells; test: Transfection of COS-7 cells with LMDs (liposome:mu:DNA), β-galactosidase reporter assay; type: cell-based; conditions: for Transfection relative to DOPE (fraction): CDAN:Helper Lipid, summary
Experimental: as §1, §2, §3
COS-7 cells were maintained in DMEM/10% FCS/1% penicillin-streptomycin (Gibco™) at 37° C./5% CO2 in a humidified atmosphere. Twenty-four hours prior to transfection, 10 000 cells per well were seeded in 48-well microtitre plates (Coming Costar) in 500 μl medium. Plasmid DNA and Transfast™ controls were prepared as above. 5 μl (0.5 μg DNA) of LMD formulation was added to each well. All experiments were performed in quadruplicate. The plate was swirled for 30 s, and incubated for 1 h at 37° C. Medium was then removed, and 500 μl of fresh medium was added. The cells were incubated at 37° C. for a further 24 h.
Medium was aspirated from the wells and the cell layer was washed with phosphate buffered saline (PBS) (Gibco™). The cells of each well were lysed in 150 μl lysis reagent (prepared according to the supplier's protocol; β-Gal Reporter Gene Assay, Roche Diagnostics GmbH, D-68305 Mannheim, Germany) at room temperature for 30 min. After lysis, […], 50 μl and 20 μl, of each cell suspension were used for the determination of β-galactosidase activity and for the determination of total cellular protein (to normalise results), respectively.
In the β-gal assay, 100 μl of the substrate reagent was added to 50 μl of the cell suspension in a white 96-well microplate (Coming Costar). […]

[4] = LMDs of CDAN:Helper Lipid, 1:1 liposomes, DOPC-analogues, FIG. 13
[5] = LMDs of CDAN:Helper Lipid, 1:1 liposomes, DOPE-analogues, FIG. 16
[6] = LMDs of CDAN:Helper Lipid, 2:3 liposomes, FIG. 17
[7] = LMDs of CDAN:Helper Lipid, 3:2 liposomes, FIG. 15
[8] = LMDs of CDAN:Helper Lipid, 1:1 liposomes, FIG. 14
[9] = LMDs of DOPE:Cationic Lipid, 1:1 liposomes, FIG. 21
[10] = LMDs of pure DOTAP or DOTAP-analogue liposomes, FIG. 20

SMILES: CCCCCCCCCCCCC#CC#CCCCCCCCCCC(=O)NCCN(CCNC(=N)N)CCNC(=N)N [BGDA, bisguanidinium-diacetylene]
- In vitro transfection in cationic liposome formulations [1]: highly efficient

SMILES: CCCCCCCCCCCCCC#CCCC(=O)OC[C@H](COP(=O)([O-])OCC[N+](C)(C)C)OC(=O)CCC#CCCCCCCCCCCCCC [DO(4-yne)PC]
- Transfection (β-galactosidase activity) ([2]; LMDs of CDAN:Helper Lipid, 1:1 (mol/mol) liposomes, DOPC-analogues, FIG. 12): almost complete loss of any transfection ability
- Transfection (β-galactosidase activity) [3, 4]: a fall in transfection ability

SMILES: CCCCCCCCCCCCCC#CCCC(=O)OC[C@H](COP(=O)(O)OCCN)OC(=O)CCC#CCCCCCCCCCCCCC [DO(4-yne)PE]
- Transfection (β-galactosidase activity) ([2]; CDAN:Helper Lipid, 2:3, repeat, liposomes not fresh, LMDs fresh, FIG. 18): fallen to around that of Transfast
- Transfection (β-galactosidase activity) [2, 5]: transfect well and approximately to the same degree; also recorded: all transfect equally well
- Transfection (β-galactosidase activity) [2, 6]: transfect the best, up to five times better than DOPE
- Transfection (β-galactosidase activity) [2, 7]: transfect very poorly
- Transfection relative to DOPE (fraction) ([3]; 1:1 liposomes): about 1/3
- Fall in transfection on substituting DOPE [3, 8]: about 67%

SMILES: CCCCCCCCC#CCCCCCCCC(=O)OCC(C[N+](C)(C)C)OC(=O)CCCCCCCC#CCCCCCCCC.COS(=O)(=O)[O-] (stereo not drawn) [DO(9-yne)TAP]
- Transfection (β-galactosidase activity) ([2]; LMDs of Cholesterol:Cationic Lipid, 1:1 liposomes, FIG. 22): transfects as well as DOTAP
- Transfection (β-galactosidase activity) [2, 9]: a small increase in transfection
- Transfection (β-galactosidase activity) [3, 10]: transfects around one and-a-half times better than standard DOTAP; also recorded: transfect as well as DOTAP liposomes

SMILES: CCCC#CCCCCCCCCCCCCC(=O)OC[C@H](COP(=O)(O)OCCN)OC(=O)CCCCCCCCCCCCC#CCCC [DO(14-yne)PE]
- Transfection (β-galactosidase activity) [2, 5]: transfects around half as well as DOPE
- Transfection (β-galactosidase activity) [2, 6]: transfects the least well out of the monoacetylenic analogues
- Transfection (β-galactosidase activity) [2, 7]: transfect very poorly
- Transfection relative to DOPE (fraction) ([3]; 1:1 liposomes): about 1/3
- Fall in transfection on substituting DOPE [3, 8]: about 67%

SMILES: CCCC#CCCCCCCCCCCCCC(=O)OCC(C[N+](C)(C)C)OC(=O)CCCCCCCCCCCCC#CCCC.COS(=O)(=O)[O-] (stereo not drawn) [DO(14-yne)TAP]
- Loss of transfection activity on replacing DOTAP ([2]; Cholesterol:Cationic Lipid, 1:1 liposomes, FIG. 22): around 30%
- Transfection (β-galactosidase activity) ([2]; LMDs composed entirely of DOTAP or DOTAP-analogue liposomes, FIG. 19): a six-fold improvement on standard DOTAP; also recorded: transfect up to six times better than DOTAP; also recorded: transfects better than DOTAP
- Transfection (β-galactosidase activity) [2, 9]: a seven-fold increase
- Transfection (β-galactosidase activity) [3, 10]: almost total loss of transfection activity; also recorded: almost no transfection at all

SMILES: CCCCCCCC/C=C\CCCCCCCC(=O)OC[C@H](COP(=O)([O-])OCC[N+](C)(C)C)OC(=O)CCCCCCC/C=C\CCCCCCCC [DOPC]
- Transfection (β-galactosidase activity) [3, 4]: transfect equally well
- In vitro transfection in cationic liposome formulations [1]: eliminate or severely attenuate transfection

SMILES: CCCCCCCC/C=C\CCCCCCCC(=O)OCC(COP(=O)(O)OCCN)OC(=O)CCCCCCC/C=C\CCCCCCCC (stereo not drawn) [DOPE, dioleoylphosphatidylethanolamine]
- Transfection (β-galactosidase activity) [2, 5]: transfect well and approximately to the same degree; also recorded: all transfect equally well
- Transfection (β-galactosidase activity) [2, 6]: below that of Transfast
- Transfection (β-galactosidase activity) [2, 7]: transfects around as twice as well as the nearest acetylenic analogue; also recorded: transfects better than all the monoacetylenic analogues
- Transfection (β-galactosidase activity) ([3]; LMDs of CDAN:Helper Lipid, 1:1 liposomes, DOPE-analogues, FIG. 14): transfection levels are high and approximately the same; also recorded: transfect COS-7 cells very well and to a similar degree
